Experimental data reported in ChEMBL document CHEMBL5523727, “Discovery of KT-413, a Targeted Protein Degrader of IRAK4 and IMiD Substrates Targeting MYD88 Mutant Diffuse Large B-Cell Lymphoma” (J Med Chem, 2024).

What was measured:
[1] = biological target: Protein cereblon (Homo sapiens, UniProt Q96SW2); test: Binding affinity to CRBN (unknown origin) by HTRF assay
[2] = biological target: T1, Cereblon/Ikaros (Homo sapiens, UniProt Q96SW2+Q13422); test: PROTAC activity at CRBN/Ikaros in human OCI-Ly10 cells assessed as induction of Ikaros degradation measured after 24 hrs by MSD assay; format: cell-based
T1 sequence (Q96SW2 whole entry): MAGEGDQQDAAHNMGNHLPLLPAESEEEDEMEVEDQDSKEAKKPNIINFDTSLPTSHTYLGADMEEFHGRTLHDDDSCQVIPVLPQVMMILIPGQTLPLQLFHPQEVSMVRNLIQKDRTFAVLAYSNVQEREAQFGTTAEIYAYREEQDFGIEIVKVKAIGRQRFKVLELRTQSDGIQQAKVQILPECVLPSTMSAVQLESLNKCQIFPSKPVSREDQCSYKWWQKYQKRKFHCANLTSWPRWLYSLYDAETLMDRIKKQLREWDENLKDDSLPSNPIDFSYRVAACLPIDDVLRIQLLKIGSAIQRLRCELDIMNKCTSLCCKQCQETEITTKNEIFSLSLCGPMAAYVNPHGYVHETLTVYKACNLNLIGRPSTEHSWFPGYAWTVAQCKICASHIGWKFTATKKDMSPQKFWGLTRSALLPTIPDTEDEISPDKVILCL
T1 sequence (Q13422 whole entry): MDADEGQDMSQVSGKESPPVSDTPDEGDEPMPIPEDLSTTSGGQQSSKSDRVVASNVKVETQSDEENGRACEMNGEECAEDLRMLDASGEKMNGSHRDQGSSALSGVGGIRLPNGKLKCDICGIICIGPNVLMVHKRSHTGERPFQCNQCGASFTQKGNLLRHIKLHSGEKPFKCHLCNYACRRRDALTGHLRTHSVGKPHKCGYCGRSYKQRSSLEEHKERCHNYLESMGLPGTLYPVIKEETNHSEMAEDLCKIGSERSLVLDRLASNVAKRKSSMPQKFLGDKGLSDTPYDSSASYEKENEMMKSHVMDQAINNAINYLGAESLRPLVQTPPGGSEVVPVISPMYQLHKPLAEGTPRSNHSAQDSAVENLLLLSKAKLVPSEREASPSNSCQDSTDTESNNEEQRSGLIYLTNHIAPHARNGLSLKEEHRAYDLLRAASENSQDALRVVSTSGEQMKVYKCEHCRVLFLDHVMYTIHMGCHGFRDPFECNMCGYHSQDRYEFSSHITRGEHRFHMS

[3] = Half life in rat plasma; format: ADME, cell-free
[4] = Drug exposure in rat administered as iv bolus dose; format: ADME, organism-based; details: in vivo
[5] = Drug exposure in Non human primate administered as iv dose; format: ADME, organism-based; details: primates, in vivo
[6] = Half life in dog plasma; format: ADME, cell-free, Canis lupus familiaris
[7] = Half life in human plasma; format: ADME, cell-free
[8] = Half life in Non human primate plasma; format: ADME, cell-free; details: primates
[9] = biological target: T2, Protein cereblon/Interleukin-1 receptor-associated kinase 4 (Homo sapiens, UniProt Q9NWZ3+Q96SW2); test: PROTAC activity at CRBN/IRAK4 in human OCI-Ly10 cells assessed as induction of IRAK4 degradation measured after 24 hrs by MSD assay; format: cell-based
Target sequence in this assay (Q9NWZ3 whole entry): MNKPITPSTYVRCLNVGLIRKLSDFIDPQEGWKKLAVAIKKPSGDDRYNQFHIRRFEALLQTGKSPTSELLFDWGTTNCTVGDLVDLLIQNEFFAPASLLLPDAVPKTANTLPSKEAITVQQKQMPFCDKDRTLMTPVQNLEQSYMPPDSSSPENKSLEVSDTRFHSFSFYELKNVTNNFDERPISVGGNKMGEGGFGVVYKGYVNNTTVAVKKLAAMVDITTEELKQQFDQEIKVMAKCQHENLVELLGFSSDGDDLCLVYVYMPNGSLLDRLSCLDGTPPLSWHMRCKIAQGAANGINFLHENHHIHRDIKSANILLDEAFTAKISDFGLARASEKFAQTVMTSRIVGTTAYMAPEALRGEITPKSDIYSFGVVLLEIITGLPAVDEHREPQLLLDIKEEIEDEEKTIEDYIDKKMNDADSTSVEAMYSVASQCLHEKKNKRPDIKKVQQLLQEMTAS
Target sequence in this assay (Q96SW2 whole entry): as the sequence (Q96SW2 whole entry) above

[10] = biological target: T2, Protein cereblon/Interleukin-1 receptor-associated kinase 4; test: PROTAC activity at CRBN/IRAK4 in human OCI-Ly10 cells assessed as induction of IRAK4 degradation measured after 24 hrs by MSD assay relative to control; format: cell-based
Target sequence in this assay (Q96SW2 whole entry, looked up): as the sequence (Q96SW2 whole entry) above
Target sequence in this assay (Q9NWZ3 whole entry, looked up): as the sequence (Q9NWZ3 whole entry) above

[11] = Metabolic stability in rat liver microsomes assessed as intrinsic clearance at 1 uM measured upto 60 mins in presence of NADPH by UPLC/MS-MS analysis; format: ADME, Microsome; details: read-out: CLH
[12] = Passive permeability of the compound in wild type MDCK cells across apical to basolateral side at 1 uM measured for 120 mins by LC-MS/MS analysis; format: ADME, cell-based, Canis lupus familiaris; details: dog, read-out: permeability
[13] = Metabolic stability in human liver microsomes assessed as intrinsic clearance at 1 uM measured upto 60 mins in presence of NADPH by UPLC/MS-MS analysis; format: ADME, Microsome; details: read-out: CLH
[14] = tested on: OCI-Ly10; test: Antiproliferative activity against human OCI-Ly10 cells measured after 4 days by CellTiter-Glo Luminescent Cell Viability Assay; format: functional, cell-based; details: Homo sapiens, OCI-Ly10, 96 h
[15] = biological target: Protein cereblon/Interleukin-1 receptor-associated kinase 4 (Homo sapiens, UniProt Q96SW2+Q9NWZ3); test: Binding affinity to CRBN/IRAK4 […] assessed as dissociation constant by DiscoverX Kd Elect assay
Protein cereblon/Interleukin-1 receptor-associated kinase 4 (Homo sapiens, UniProt Q96SW2+Q9NWZ3), sequence (Q9NWZ3 whole entry): as above
Protein cereblon/Interleukin-1 receptor-associated kinase 4 (Homo sapiens, UniProt Q96SW2+Q9NWZ3), sequence (Q96SW2 whole entry): as the sequence (Q96SW2 whole entry) above

[16] = biological target: T1, Cereblon/Ikaros; test: PROTAC activity at CRBN/Ikaros in human OCI-Ly10 cells assessed as induction of Ikaros degradation measured after 6 hrs by MSD assay relative to control; format: cell-based
[17] = Half life in rat at 2 mg/kg, iv by LC-MS/MS analysis; format: ADME, organism-based; details: in vivo
[18] = AUC in rat at 5 mg/kg, po by LC-MS/MS analysis; format: ADME, organism-based; details: in vivo
[19] = Clearance in rat at 2 mg/kg, iv by LC-MS/MS analysis; format: ADME, organism-based; details: in vivo
[20] = Volume of distribution at steady state in rat at 2 mg/kg, iv by LC-MS/MS analysis; format: ADME, organism-based; details: in vivo, read-out: Vdss
[21] = Oral bioavailability in rat at 5 mg/kg by LC-MS/MS analysis; format: ADME, organism-based; details: in vivo

Protein cereblon, sequence (Q96SW2 whole entry): as above

SMILES	IC50 [1] [nM]	DC50 [2] [nM]	DC50 [9] [nM]	microsomal CLint at 1 µM [11] [µL/min/mg]	Papp A→B at 2 h, 1 µM [12] [×10⁻⁶ cm/s]	microsomal CLint at 1 µM [13] [µL/min/mg]	IC50 [14] [nM]	Kd [15] [nM]	further results
CC(C)(O)c1cc2nc([C@H]3CC[C@H](CN4CC5(CC(CCNc6cccc7c6C(=O)N([C@@H]6CCC(=O)NC6=O)C7=O)C5)C4)CC3)sc2cc1NC(=O)c1cccc(C(F)(F)F)n1	110	9	19						half-life [3]: 2.38 h; Drug uptake [4]: 48%; Drug uptake [5]: 30%; half-life [6]: 3.07 h; half-life [7]: 2.92 h; half-life [8]: 3.03 h
CN(CCCOc1cccc2c1CN(C1CCC(=O)NC1=O)C2=O)C[C@H]1CC[C@H](n2cc3cc(NC(=O)c4cccc(C(F)(F)F)n4)c(C(C)(C)O)cc3n2)CC1 (stereo partly specified)		> 500	5	44	4.8	19	235	0.22	Emax [10]: 80%
CN(CCCCc1cccc2c1C(=O)N(C1CCC(=O)NC1=O)C2=O)C[C@H]1CC[C@H](n2cc3cc(NC(=O)c4cccc(C(F)(F)F)n4)c(C(C)(C)O)cc3n2)CC1 (stereo partly specified)	91	> 1000	20		1.3		> 1000	0.14	Emax [16]: 40%
CC(C)(O)c1cc2nn([C@H]3CC[C@H](CN4CCC5(CC4)CC(CNc4cccc6c4C(=O)N(C4CCC(=O)NC4=O)C6=O)C5)CC3)cc2cc1NC(=O)c1cccc(C(F)(F)F)n1 (stereo partly specified)	44	6	6	2.1	2.2	2.8	8		half-life [17]: 11 h; AUC [18]: 0.06 µM·h; clearance [19]: 15 mL/min/kg; Vd [20]: 13 L/kg; bioavailability [21]: 1%
